# Reference: BigSolDB 2.1
smiles,measurement,setting,value
C=C1C[C@]23C[C@@]1(O)CC[C@H]2[C@@]12C=C[C@H](O)[C@@](C)(C(=O)O1)[C@H]2[C@@H]3C(=O)O,solubility (mole fraction),"in DMSO, 278.15 K",0.121
same,solubility (mole fraction),"in DMSO, 283.15 K",0.138
same,solubility (mole fraction),"in DMSO, 288.15 K",0.159
same,solubility (mole fraction),"in DMSO, 293.15 K",0.184
same,solubility (mole fraction),"in DMSO, 298.15 K",0.207
same,solubility (mole fraction),"in DMSO, 303.15 K",0.233
same,solubility (mole fraction),"in DMSO, 308.15 K",0.263
same,solubility (mole fraction),"in DMSO, 313.15 K",0.291
same,solubility (mole fraction),"in DMSO, 318.15 K",0.323
same,solubility (mole fraction),"in DMSO, 323.15 K",0.362
same,solubility (mole fraction),"in THF, 278.15 K",0.149
same,solubility (mole fraction),"in THF, 283.15 K",0.173
same,solubility (mole fraction),"in THF, 288.15 K",0.199
same,solubility (mole fraction),"in THF, 293.15 K",0.227
same,solubility (mole fraction),"in THF, 298.15 K",0.252
same,solubility (mole fraction),"in THF, 303.15 K",0.279
same,solubility (mole fraction),"in THF, 308.15 K",0.31
same,solubility (mole fraction),"in THF, 313.15 K",0.341
same,solubility (mole fraction),"in THF, 318.15 K",0.371
same,solubility (mole fraction),"in THF, 323.15 K",0.401
same,solubility (mole fraction),"in acetone, 278.15 K",0.103
same,solubility (mole fraction),"in acetone, 283.15 K",0.12
same,solubility (mole fraction),"in acetone, 288.15 K",0.137
same,solubility (mole fraction),"in acetone, 293.15 K",0.158
same,solubility (mole fraction),"in acetone, 298.15 K",0.181
same,solubility (mole fraction),"in acetone, 303.15 K",0.205
same,solubility (mole fraction),"in acetone, 308.15 K",0.23
same,solubility (mole fraction),"in acetone, 313.15 K",0.258
same,solubility (mole fraction),"in acetone, 318.15 K",0.289
same,solubility (mole fraction),"in acetone, 323.15 K",0.32
same,solubility (mole fraction),"in acetonitrile, 278.15 K",0.00864
same,solubility (mole fraction),"in acetonitrile, 283.15 K",0.0119
same,solubility (mole fraction),"in acetonitrile, 288.15 K",0.0155
same,solubility (mole fraction),"in acetonitrile, 293.15 K",0.0197
same,solubility (mole fraction),"in acetonitrile, 298.15 K",0.0243
same,solubility (mole fraction),"in acetonitrile, 303.15 K",0.0294
same,solubility (mole fraction),"in acetonitrile, 308.15 K",0.0352
same,solubility (mole fraction),"in acetonitrile, 313.15 K",0.0413
same,solubility (mole fraction),"in acetonitrile, 318.15 K",0.0481
same,solubility (mole fraction),"in acetonitrile, 323.15 K",0.0565
same,solubility (mole fraction),"in chloroform, 278.15 K",0.0222
same,solubility (mole fraction),"in chloroform, 283.15 K",0.0302
same,solubility (mole fraction),"in chloroform, 288.15 K",0.0386
same,solubility (mole fraction),"in chloroform, 293.15 K",0.0479
same,solubility (mole fraction),"in chloroform, 298.15 K",0.0591
same,solubility (mole fraction),"in chloroform, 303.15 K",0.0715
same,solubility (mole fraction),"in chloroform, 308.15 K",0.085
same,solubility (mole fraction),"in chloroform, 313.15 K",0.0994
same,solubility (mole fraction),"in chloroform, 318.15 K",0.114
same,solubility (mole fraction),"in chloroform, 323.15 K",0.13
same,solubility (mole fraction),"in ethanol, 278.15 K",0.181
same,solubility (mole fraction),"in ethanol, 283.15 K",0.205
same,solubility (mole fraction),"in ethanol, 288.15 K",0.231
same,solubility (mole fraction),"in ethanol, 293.15 K",0.257
same,solubility (mole fraction),"in ethanol, 298.15 K",0.284
same,solubility (mole fraction),"in ethanol, 303.15 K",0.312
same,solubility (mole fraction),"in ethanol, 308.15 K",0.344
same,solubility (mole fraction),"in ethanol, 313.15 K",0.374
same,solubility (mole fraction),"in ethanol, 318.15 K",0.404
same,solubility (mole fraction),"in ethanol, 323.15 K",0.438
same,solubility (mole fraction),"in ethyl acetate, 278.15 K",0.0679
same,solubility (mole fraction),"in ethyl acetate, 283.15 K",0.0807
same,solubility (mole fraction),"in ethyl acetate, 288.15 K",0.0956
same,solubility (mole fraction),"in ethyl acetate, 293.15 K",0.112
same,solubility (mole fraction),"in ethyl acetate, 298.15 K",0.132
same,solubility (mole fraction),"in ethyl acetate, 303.15 K",0.152
same,solubility (mole fraction),"in ethyl acetate, 308.15 K",0.175
same,solubility (mole fraction),"in ethyl acetate, 313.15 K",0.203
same,solubility (mole fraction),"in ethyl acetate, 318.15 K",0.235
same,solubility (mole fraction),"in ethyl acetate, 323.15 K",0.271
same,solubility (mole fraction),"in isopropanol, 278.15 K",0.000502
same,solubility (mole fraction),"in isopropanol, 283.15 K",0.000563
same,solubility (mole fraction),"in isopropanol, 288.15 K",0.000625
same,solubility (mole fraction),"in isopropanol, 293.15 K",0.000688
same,solubility (mole fraction),"in isopropanol, 298.15 K",0.000752
same,solubility (mole fraction),"in isopropanol, 303.15 K",0.000821
same,solubility (mole fraction),"in isopropanol, 308.15 K",0.000888
same,solubility (mole fraction),"in isopropanol, 313.15 K",0.00096
same,solubility (mole fraction),"in isopropanol, 318.15 K",0.00103
same,solubility (mole fraction),"in isopropanol, 323.15 K",0.00111
same,solubility (mole fraction),"in n-butanol, 278.15 K",0.0021
same,solubility (mole fraction),"in n-butanol, 283.15 K",0.00318
same,solubility (mole fraction),"in n-butanol, 288.15 K",0.00427
same,solubility (mole fraction),"in n-butanol, 293.15 K",0.00554
same,solubility (mole fraction),"in n-butanol, 298.15 K",0.00704
same,solubility (mole fraction),"in n-butanol, 303.15 K",0.00876
same,solubility (mole fraction),"in n-butanol, 308.15 K",0.0107
same,solubility (mole fraction),"in n-butanol, 313.15 K",0.0129
same,solubility (mole fraction),"in n-butanol, 318.15 K",0.0151
same,solubility (mole fraction),"in n-butanol, 323.15 K",0.0173
same,solubility (mole fraction),"in n-heptane, 278.15 K",8.4e-05
same,solubility (mole fraction),"in n-heptane, 283.15 K",0.000116
same,solubility (mole fraction),"in n-heptane, 288.15 K",0.000152
same,solubility (mole fraction),"in n-heptane, 293.15 K",0.000192
same,solubility (mole fraction),"in n-heptane, 298.15 K",0.000236
same,solubility (mole fraction),"in n-heptane, 303.15 K",0.000289
same,solubility (mole fraction),"in n-heptane, 308.15 K",0.000349
same,solubility (mole fraction),"in n-heptane, 313.15 K",0.000407
same,solubility (mole fraction),"in n-heptane, 318.15 K",0.000471
same,solubility (mole fraction),"in n-heptane, 323.15 K",0.000537
same,solubility (mole fraction),"in n-hexane, 278.15 K",0.00017
same,solubility (mole fraction),"in n-hexane, 283.15 K",0.000202
same,solubility (mole fraction),"in n-hexane, 288.15 K",0.000239
same,solubility (mole fraction),"in n-hexane, 293.15 K",0.000282
same,solubility (mole fraction),"in n-hexane, 298.15 K",0.00033
same,solubility (mole fraction),"in n-hexane, 303.15 K",0.000386
same,solubility (mole fraction),"in n-hexane, 308.15 K",0.000444
same,solubility (mole fraction),"in n-hexane, 313.15 K",0.000511
same,solubility (mole fraction),"in n-hexane, 318.15 K",0.000583
same,solubility (mole fraction),"in n-hexane, 323.15 K",0.000666
